Patent US4130709A, “Pleuromutilin glycoside derivatives” (Eli Lilly and Company, priority 1977, dated 1978)
Values after ≈ are worked out from the molar mass of the structure shown. Like-named read-outs stand apart in the source and are kept apart here.

How the values were obtained:
Format in all cases: cell-based
Mycoplasma gallisepticum = experiment: in vitro broth-dilution studies, mycoplasma; settings: Mycoplasmoides gallisepticum
Excerpt: (§1) The minimal inhibitory concentrations (MIC's) of a number of typical compounds of the present invention (R^2 =H in group tested) against various mycoplasma species, as determined by in vitro broth-dilution studies, are summarized in Table V.

Mycoplasma hyorhinis = experiment: in vitro broth-dilution studies, mycoplasma
Excerpt: as §1

Mycoplasma synoviae = experiment: in vitro broth-dilution studies, mycoplasma; settings: Mycoplasmopsis synoviae
Excerpt: as §1

[1] = system: Staphylococcus aureus (H-Heatley) NRRL B-314; experiment: in vitro turbidometric assay (Autoturb Microbiological Assay System) against Staphylococcus aureus; settings: nutrient broth pH 7, approximately 4 hours at 37° C., A-40104 factor A as standard
Protocol: The compounds are conveniently tested against a typical gram-positive organism, Staphylococcus aureus, using a turbidometric assay on a semi-automated system (Autoturb Microbiological Assay System, Elanco) described by N. R. Kuzel and F. W. Kavanagh in J. Pharmaceut. Sci, 60 (5), 764 and 767 (1971). In testing these compounds, the following parameters were used: Staphylococcus aureus (H-Heatley) NRRL B-314 in a nutrient broth medium (pH 7), incubated for approximately 4 hours at 37° C. Test samples and A-40104 factor A, which is used as a standard, were dissolved in water. The standard was presented to the Autoturb carrousel at concentrations of 1.25, 2.50, 3.75, 5.00 and 6.25 mcg/ml. Test compounds were diluted to contain approximately 2.5 to 5.0 mcg of activity per ml, as presented to the carrousel. The units of activity of some of the typical compounds of this invention (R^2 =H in group tested) in this in vitro assay are summarized in Table I

Spiroplasma citri = experiment: in vitro inhibition of Spiroplasma citri measured by a color reaction; design: key to Activity (color reaction): Red (R) includes complete inhibition; red-orange (RO) indicates partial inhibition; yellow (Y) indicates no inhibition
Protocol: In another important aspect, the compounds of this invention are active against Spiroplasmas. Spiroplasma citri is the causative agent of citrus-stubborn disease; another Spiroplasma, corn-stunt Spiroplasma, affects the growth of corn. Table VII summarizes the in vitro activity of representative compounds of the present invention (R^2 =H in this group) against Spiroplasma citri. In this test, inhibition of S. citri is measured by a color reaction. Red (R) includes complete inhibition; red-orange (RO) indicates partial inhibition; and yellow (Y) indicates no inhibition.

[2] = system: Bacteroides fragilis 1877; experiment: standard agar-dilution test, anaerobic bacteria
Clostridium perfringens = experiment: microbe, parasite or virus in culture; settings: 24 h
[3] = system: Fusobacterium necrophorum; experiment: standard agar-dilution test, anaerobic bacteria
[4] = system: Peptococcus asaccharolyticus; experiment: standard agar-dilution test, anaerobic bacteria; settings: Peptoniphilus asaccharolyticus, 24-hour incubation
Actinomyces israelii = experiment: standard agar-dilution test, anaerobic bacteria; settings: 24-hour incubation
Bacteroides fragilis 111 = experiment: standard agar-dilution test, anaerobic bacteria
Peptococcus prevoti = experiment: standard agar-dilution test, anaerobic bacteria
[5] = system: Bacteroides melaninogenicus 1856/28; experiment: standard agar-dilution test, anaerobic bacteria; settings: Prevotella intermedia
[6] = system: Peptostreptococcus intermedius; experiment: standard agar-dilution test, anaerobic bacteria
[7] = system: Bacteroides fragilis 1936B; experiment: standard agar-dilution test, anaerobic bacteria
Eubacterium aerofaciens = experiment: standard agar-dilution test, anaerobic bacteria; settings: Collinsella aerofaciens
Clostridium septicum = experiment: standard agar-dilution test, anaerobic bacteria; settings: 24-hour incubation
Protocol: (§2) Table IV summarizes the activity of typical compounds of this invention, as determined by the standard agar-dilution test.
(§3) *Endpoint read after 24-hour incubation

[8] = system: Bacteroides thetaiotaomicron; experiment: standard agar-dilution test, anaerobic bacteria; settings: 24-hour incubation
Protocol: as §2, §3

[9] = system: Bacteroides melaninogenicus 2736; experiment: standard agar-dilution test, anaerobic bacteria
[10] = system: Peptostreptococcus anaerobius; experiment: standard agar-dilution test, anaerobic bacteria; settings: 24-hour incubation
Bacteroides corrodens = experiment: standard agar-dilution test, anaerobic bacteria; settings: Eikenella corrodens
Fusobacterium symbiosum = experiment: standard agar-dilution test, anaerobic bacteria
Bacteroides vulgatis = experiment: standard agar-dilution test, anaerobic bacteria
Mycoplasma hyopneumoniae = experiment: in vitro broth-dilution studies, mycoplasma; settings: Mesomycoplasma hyopneumoniae
Excerpt: as §1

[11] = Bacteroides fragilis, 1877, 24 h
[12] = Bacteroides fragilis, 111, 24 h
[13] = Bacteroides fragilis, 1936B, 24 h
[14] = Bacteroides melaninogenicus 2736, 24-hour incubation, read-out: MIC
[15] = 24-hour incubation, read-out: MIC
[16] = Peptococcus prevoti, 24-hour incubation, read-out: MIC
[17] = Bacteroides fragilis 1877, 24-hour incubation, read-out: MIC
[18] = Peptostreptococcus intermedius, 24-hour incubation, read-out: MIC
[19] = Bacteroides fragilis 1936B, 24-hour incubation, read-out: MIC
[20] = Bacteroides corrodens, 24-hour incubation, read-out: MIC
[21] = Bacteroides vulgatis, 24-hour incubation, read-out: MIC
[22] = Bacteroides fragilis 111, 24-hour incubation, read-out: MIC
[23] = Bacteroides melaninogenicus 1856/28, 24-hour incubation, read-out: MIC
[24] = Eubacterium aerofaciens, 24-hour incubation, read-out: MIC
[25] = Fusobacterium symbiosum, 24-hour incubation, read-out: MIC

Compound	MIC (Mycoplasma gallisepticum) [µg/mL]	MIC (Mycoplasma hyorhinis) [µg/mL]	MIC (Mycoplasma synoviae) [µg/mL]	Units of Activity [1] [µg/mg]	Activity (color reaction) (Spiroplasma citri; 1.0 ppm)	MIC (Clostridium perfringens) [µg/mL]	MIC [4] [µg/mL]	MIC (Actinomyces israelii) [µg/mL]	MIC (Bacteroides fragilis 111; [12]) [µg/mL]	MIC ([5]; 1856/28, 24 h) [µg/mL]	MIC (Eubacterium aerofaciens; 24 h) [µg/mL]	MIC (Clostridium septicum) [µg/mL]	MIC [8] [µg/mL]	MIC [9, 14] [µg/mL]	MIC [10] [µg/mL]	MIC (Fusobacterium symbiosum; Fusobacterium, 24 h) [µg/mL]	MIC [3, 15] [µg/mL]	MIC (Peptococcus prevoti; [16]) [µg/mL]	MIC [2, 17] [µg/mL]	MIC [6, 18] [µg/mL]	also measured
C=C[C@]1(C)C[C@@H](OC(=O)CO[C@@H]2O[C@H](COC(C)=O)[C@@H](OC(C)=O)[C@H](OC(C)=O)[C@H]2OC(C)=O)[C@]2(C)[C@H](C)CC[C@]3(CCC(=O)[C@H]32)[C@@H](C)[C@@H]1O [Example 3, 14-deoxy-14-[(2,3,4,6-tetra-O-acetyl-β-D-glucopyranosyl)oxyacetoxy]mutilin]	0.78 (≈ 1.1 µM)	0.78 (≈ 1.1 µM)	0.78 (≈ 1.1 µM)	75 to 85	R	–	–	–	–	–	–	–	–	–	–	–	–	–	–	–	–
C=C[C@]1(C)C[C@@H](OC(=O)CO[C@H]2O[C@H](COC(C)=O)[C@@H](OC(C)=O)[C@H](OC(C)=O)C2=NO)[C@]2(C)[C@H](C)CC[C@]3(CCC(=O)[C@H]32)[C@@H](C)[C@@H]1O [Compound 7, 14-deoxy-14-[(2-deoxy-2-(hydroxyimino)-3,4,6-tri-O-acetyl-α-D-glucopyranosyl)oxyacetoxy]mutilin]	0.78 (≈ 1.15 µM)	0.78 (≈ 1.15 µM)	> 6.25	11 to 12	–	> 128	64 (≈ 94.2 µM)	64 (≈ 94.2 µM)	> 128	> 128	> 128	> 128	> 128	32 (≈ 47.1 µM)	64 (≈ 94.2 µM)	> 128	–	–	–	–	MIC [2, 11]: > 128 µg/mL; MIC ([3]; 24 h): > 128 µg/mL; MIC (Peptococcus prevoti; 24 h): 128 µg/mL (≈ 188 µM); MIC ([6]; Peptostreptococcus, 24 h): > 128 µg/mL; MIC [7, 13]: > 128 µg/mL; MIC (Bacteroides corrodens; 24 h): > 128 µg/mL; MIC (Bacteroides vulgatis; Bacteroides, 24 h): > 128 µg/mL
C=C[C@]1(C)C[C@@H](OC(=O)CO[C@@H]2O[C@H](CO)[C@@H](O)[C@H](O)[C@H]2O)[C@]2(C)[C@H](C)CC[C@]3(CCC(=O)[C@H]32)[C@@H](C)[C@@H]1O [Example 4, 14-deoxy-14-[(β-D-glucopyranosyl)oxyacetoxy]-mutilin]	0.39 (≈ 0.721 µM)	0.78 (≈ 1.44 µM)	0.78 (≈ 1.44 µM)	12 to 13	R	–	–	–	–	–	–	–	–	–	–	–	–	–	–	–	Activity (color reaction) (Spiroplasma citri; 0.1 ppm): Y
C=C[C@]1(C)C[C@@H](OC(=O)CO[C@H]2O[C@H](COC(C)=O)[C@H](OC(C)=O)[C@H](OC(C)=O)C2=NO)[C@]2(C)[C@H](C)CC[C@]3(CCC(=O)[C@H]32)[C@@H](C)[C@@H]1O [Compound 9, 14-deoxy-14-[(2-deoxy-2-(hydroxyimino)-3,4,6-tri-O-acetyl-α-D-galactopyranosyl)oxyacetoxy]mutilin]	< 0.78	1.56 (≈ 2.29 µM)	< 0.78	53 to 54	–	> 128	16 (≈ 23.5 µM)	1 (≈ 1.47 µM)	> 128	> 128	> 128	> 128	> 128	–	2 (≈ 2.94 µM)	> 128	64 (≈ 94.2 µM)	16 (≈ 23.5 µM)	–	–	MIC [2, 11]: > 128 µg/mL; MIC (Mycoplasma hyopneumoniae): 0.78 µg/mL (≈ 1.15 µM); MIC ([6]; Peptostreptococcus, 24 h): > 128 µg/mL; MIC [7, 13]: > 128 µg/mL; MIC ([9]; 2736, 24 h): > 128 µg/mL; MIC (Bacteroides corrodens; 24 h): > 128 µg/mL; MIC (Bacteroides vulgatis; Bacteroides, 24 h): > 128 µg/mL
C=C[C@]1(C)C[C@@H](OC(=O)CS[C@@H]2O[C@H](COC(C)=O)[C@@H](OC(C)=O)[C@H](OC(C)=O)[C@H]2OC(C)=O)[C@]2(C)[C@H](C)CC[C@]3(CCC(=O)[C@H]32)[C@@H](C)[C@@H]1O [Compound 11, 14-deoxy-14-[(2,3,4,6-tetra-O-acetyl-β-D-glucopyranosyl)thioacetoxy]mutilin]	> 0.78	> 0.78	1.56 (≈ 2.15 µM)	253 to 265	–	> 128	≤ 0.5	≤ 0.5	128 (≈ 177 µM)	> 128	> 128	16 (≈ 22.1 µM)	16 (≈ 22.1 µM)	16 (≈ 22.1 µM)	≤ 0.5	128 (≈ 177 µM)	16 (≈ 22.1 µM)	≤ 0.5	32 (≈ 44.1 µM)	1 (≈ 1.38 µM)	MIC [7, 19]: 32 µg/mL (≈ 44.1 µM); MIC (Bacteroides corrodens; [20]): 32 µg/mL (≈ 44.1 µM); MIC (Bacteroides vulgatis; [21]): 32 µg/mL (≈ 44.1 µM)
C=C[C@]1(C)C[C@@H](OC(=O)CO[C@H]2O[C@H](COCc3ccccc3)[C@@H](OCc3ccccc3)[C@H](OCc3ccccc3)[C@H]2OCc2ccccc2)[C@]2(C)[C@H](C)CC[C@]3(CCC(=O)[C@H]32)[C@@H](C)[C@@H]1O [Example 1, 14-deoxy-14-[(2,3,4,6-tetra-O-benzyl-α-D-glucopyranosyl)oxyacetoxy]mutilin]	25 (≈ 27.7 µM)	50 (≈ 55.5 µM)	50 (≈ 55.5 µM)	–	–	–	–	–	–	–	–	–	–	–	–	–	–	–	–	–	–
C=C[C@]1(C)C[C@@H](OC(=O)CS[C@@H]2O[C@H](CO)[C@@H](O)[C@H](O)[C@H]2O)[C@]2(C)[C@H](C)CC[C@]3(CCC(=O)[C@H]32)[C@@H](C)[C@@H]1O [Compound 10, 14-deoxy-14-[(β-D-glucopyranosyl)thioacetoxy]mutilin]	1.56 (≈ 2.8 µM)	1.56 (≈ 2.8 µM)	3.12 (≈ 5.6 µM)	36	–	64 (≈ 115 µM)	16 (≈ 28.7 µM)	2 (≈ 3.59 µM)	–	–	–	64 (≈ 115 µM)	64 (≈ 115 µM)	32 (≈ 57.5 µM)	≤ 0.5	–	2 (≈ 3.59 µM)	16 (≈ 28.7 µM)	64 (≈ 115 µM)	4 (≈ 7.18 µM)	MIC (Bacteroides fragilis 111; [22]): 128 µg/mL (≈ 230 µM); MIC [5, 23]: > 128 µg/mL; MIC [7, 19]: 64 µg/mL (≈ 115 µM); MIC (Eubacterium aerofaciens; [24]): 16 µg/mL (≈ 28.7 µM); MIC (Bacteroides corrodens; [20]): 64 µg/mL (≈ 115 µM); MIC (Fusobacterium symbiosum; [25]): 64 µg/mL (≈ 115 µM); MIC (Bacteroides vulgatis; [21]): 64 µg/mL (≈ 115 µM)
CC[C@]1(C)C[C@@H](OC(=O)CS[C@@H]2O[C@H](CO)[C@@H](O)[C@H](O)[C@H]2O)[C@]2(C)[C@H](C)CC[C@]3(CCC(=O)[C@H]32)[C@@H](C)[C@@H]1O [Compound 5, 14-deoxy-14-[(β-D-glucopyranosyl)thioacetoxy]-19,20-dihydromutilin]	–	–	–	29 to 31	R	8 (≈ 14.3 µM)	4 (≈ 7.16 µM)	≤ 0.5	–	–	–	32 (≈ 57.3 µM)	64 (≈ 115 µM)	4 (≈ 7.16 µM)	8 (≈ 14.3 µM)	–	8 (≈ 14.3 µM)	2 (≈ 3.58 µM)	64 (≈ 115 µM)	2 (≈ 3.58 µM)	MIC (Bacteroides fragilis 111; [22]): 64 µg/mL (≈ 115 µM); MIC [5, 23]: 2 µg/mL (≈ 3.58 µM); MIC [7, 19]: 128 µg/mL (≈ 229 µM); MIC (Eubacterium aerofaciens; [24]): 4 µg/mL (≈ 7.16 µM); Activity (color reaction) (Spiroplasma citri; 0.01 ppm): Y; Activity (color reaction) (Spiroplasma citri; 0.05 ppm): R; Activity (color reaction) (Spiroplasma citri; 0.1 ppm): R; MIC (Bacteroides corrodens; [20]): 64 µg/mL (≈ 115 µM); MIC (Fusobacterium symbiosum; [25]): 16 µg/mL (≈ 28.6 µM); MIC (Bacteroides vulgatis; [21]): 32 µg/mL (≈ 57.3 µM)
